In general, pKi refers to the Ki on a negative log10 scale, so that one unit is a factor of ten. A low value points to a high Ki.

The results in this text go back to ChEMBL document CHEMBL1128191, “1-(1-[4-[(N-acetyl-4-piperidinyl)oxy]-2-methoxybenzoyl]piperidin-4-yl)-4H-3,1-benzoxazin-2(1H)-one (L-371,257): a new, orally bioavailable, non-peptide oxytocin antagonist” (J Med Chem, 1995).

pKi: −log10 of the molar value.

T6 sequence (P30518 whole entry): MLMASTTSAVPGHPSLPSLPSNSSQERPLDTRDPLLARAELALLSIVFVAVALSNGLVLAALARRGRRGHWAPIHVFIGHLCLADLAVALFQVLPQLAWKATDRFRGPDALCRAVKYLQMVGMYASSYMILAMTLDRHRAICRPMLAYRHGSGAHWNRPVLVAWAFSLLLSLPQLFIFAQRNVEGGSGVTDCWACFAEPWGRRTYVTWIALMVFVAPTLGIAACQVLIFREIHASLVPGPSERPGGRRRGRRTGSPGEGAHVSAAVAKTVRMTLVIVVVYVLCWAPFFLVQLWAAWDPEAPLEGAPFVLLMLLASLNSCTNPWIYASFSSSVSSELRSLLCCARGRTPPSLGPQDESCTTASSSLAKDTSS

In the first test the target is T1, Oxytocin receptor (Homo sapiens, UniProt P30559).
T1 sequence (P30559 whole entry): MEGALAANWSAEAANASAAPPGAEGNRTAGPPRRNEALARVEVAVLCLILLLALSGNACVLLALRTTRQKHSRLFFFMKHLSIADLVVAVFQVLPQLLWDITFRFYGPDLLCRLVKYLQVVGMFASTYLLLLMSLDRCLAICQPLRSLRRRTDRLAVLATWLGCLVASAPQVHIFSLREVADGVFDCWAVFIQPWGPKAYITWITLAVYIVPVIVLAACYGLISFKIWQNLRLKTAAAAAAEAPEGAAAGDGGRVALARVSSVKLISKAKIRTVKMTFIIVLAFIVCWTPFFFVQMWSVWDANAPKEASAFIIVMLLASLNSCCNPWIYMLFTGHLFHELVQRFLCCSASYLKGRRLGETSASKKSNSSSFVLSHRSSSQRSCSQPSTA
As to the kind of experiment: Binding affinity was evaluated by measuring the displacement of [3H]OT (oxytocin) from specific binding sites in uterine tissue obtained from human. On the technique in general: Displacement assays read how much labelled ligand stays bound in the presence of the test substance.
Compound `CC(=O)N1CCCC(COc2ccc(C(=O)N3CCC(N4C(=O)OCc5ccccc54)CC3)cc2)C1` (stereo not given) gave a negative-log Ki (pKi) of 6.70.

As for `COc1cc(OC2CCN(C(C)=O)CC2)ccc1C(=O)N1CCC(N2C(=O)OCc3ccccc32)CC1`, the pKi is 8.34. This pKi lies 1.64 log units higher than the previous one.

In the case of `CC(=O)N1CCCCC1CCOc1ccc(C(=O)N2CCC(N3C(=O)OCc4ccccc43)CC2)cc1` (stereo not given), the negative-log Ki (pKi) is 6.82.

Consider `CC(=O)N1CCC(Oc2ccc(C(=O)N3CCC(N4C(=O)OCc5ccccc54)CC3)cc2)CC1`, for which the negative-log Ki (pKi) was 7.62.

The next test has as its target T1, Oxytocin receptor. As to the kind of experiment: Binding affinity was evaluated by measuring the displacement of [3H]-OT (oxytocin) from specific binding sites in uterine tissue obtained from human.
Take `CC(=O)NCCCOc1ccc(C(=O)N2CCC(N3C(=O)OCc4ccccc43)CC2)cc1`: the negative logarithm of the Ki (pKi) is 6.89.

For `CC(=O)NCCCOc1ccc(C(=O)N2CCC(N3C(=O)NCc4ccccc43)CC2)cc1`, the pKi is 5.68. This pKi lies 1.21 log units lower than the previous one.

For the compound `CC(=O)NCCCOc1ccc(C(=O)N2CCC(N3C(=O)CCc4ccccc43)CC2)cc1`, the pKi was 6.77.

In another test the target is T2, Oxytocin receptor (Rattus norvegicus, UniProt P70536).
T2 sequence (P70536 whole entry): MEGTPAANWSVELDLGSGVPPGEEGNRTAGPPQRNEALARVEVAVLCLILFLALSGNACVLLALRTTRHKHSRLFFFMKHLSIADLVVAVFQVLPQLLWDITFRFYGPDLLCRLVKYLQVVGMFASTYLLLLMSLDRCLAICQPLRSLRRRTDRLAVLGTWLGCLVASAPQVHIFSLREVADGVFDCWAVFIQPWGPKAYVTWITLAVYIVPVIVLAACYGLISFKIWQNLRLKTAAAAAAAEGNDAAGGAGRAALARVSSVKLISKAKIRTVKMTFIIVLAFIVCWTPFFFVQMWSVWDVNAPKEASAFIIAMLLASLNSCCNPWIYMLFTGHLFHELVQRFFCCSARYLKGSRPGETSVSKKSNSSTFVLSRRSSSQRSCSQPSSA
In words: Binding affinity was evaluated by measuring the displacement of [3H]-OT (oxytocin) from specific binding sites in uterine tissue obtained from rats.
Regarding `CC(=O)N1CCCC(COc2ccc(C(=O)N3CCC(N4C(=O)OCc5ccccc54)CC3)cc2)C1` (stereo not given), the negative-log Ki (pKi) is 6.47.

Take `CC(=O)NCCCOc1ccc(C(=O)N2CCC(N3C(=O)OCc4ccccc43)CC2)cc1`: the pKi is 6.70.

In turn, `CC(=O)NCCCOc1ccc(C(=O)N2CCC(N3C(=O)NCc4ccccc43)CC2)cc1` showed a pKi of 5.62.

Regarding `CC(=O)NCCCOc1ccc(C(=O)N2CCC(N3C(=O)CCc4ccccc43)CC2)cc1`, the pKi was 6.64.

`CC(=O)N1CCC(Oc2ccc(C(=O)N3CCC(N4C(=O)OCc5ccccc54)CC3)cc2)CC1` gave a pKi of 7.16.

Another test deals with T3, Vasopressin V1a receptor (Homo sapiens, UniProt P37288). In words: Binding affinity was evaluated by measuring the displacement of [3H]AVP (arginine vasopressin) from specific binding sites in human platelets.
T3 sequence (P37288 whole entry): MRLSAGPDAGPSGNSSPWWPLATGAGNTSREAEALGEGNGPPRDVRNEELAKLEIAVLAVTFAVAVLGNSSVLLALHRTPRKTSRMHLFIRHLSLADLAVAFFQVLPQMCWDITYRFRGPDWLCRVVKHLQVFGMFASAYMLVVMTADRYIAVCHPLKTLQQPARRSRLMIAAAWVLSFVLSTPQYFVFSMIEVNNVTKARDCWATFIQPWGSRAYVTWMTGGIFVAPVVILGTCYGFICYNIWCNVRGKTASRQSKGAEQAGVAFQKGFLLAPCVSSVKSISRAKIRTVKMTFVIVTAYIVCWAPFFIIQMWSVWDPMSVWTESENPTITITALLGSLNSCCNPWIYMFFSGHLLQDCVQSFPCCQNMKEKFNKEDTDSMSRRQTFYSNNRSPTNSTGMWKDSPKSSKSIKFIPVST
In the case of `CC(=O)N1CCCC(COc2ccc(C(=O)N3CCC(N4C(=O)OCc5ccccc54)CC3)cc2)C1` (stereo not given), the pKi is 4.42.

The compound `COc1cc(OC2CCN(C(C)=O)CC2)ccc1C(=O)N1CCC(N2C(=O)OCc3ccccc32)CC1` showed a pKi of 5.49.

With `CC(=O)N1CCCCC1CCOc1ccc(C(=O)N2CCC(N3C(=O)OCc4ccccc43)CC2)cc1` (stereo not given), the negative-log Ki (pKi) is 4.66.

In turn, `CC(=O)N1CCC(Oc2ccc(C(=O)N3CCC(N4C(=O)OCc5ccccc54)CC3)cc2)CC1` gave a negative-log Ki (pKi) of 4.92.

For the next test, the target named is T3, Vasopressin V1a receptor. As to the kind of experiment: Binding affinity was evaluated by measuring the displacement of [3H]AVP (arginine vasopressin) from specific binding sites in human platelets.
The compound `CC(=O)NCCCOc1ccc(C(=O)N2CCC(N3C(=O)OCc4ccccc43)CC2)cc1` had a negative-log Ki (pKi) of 4.44.

The compound `CC(=O)NCCCOc1ccc(C(=O)N2CCC(N3C(=O)NCc4ccccc43)CC2)cc1` showed a pKi of 4.21.

Compound `CC(=O)NCCCOc1ccc(C(=O)N2CCC(N3C(=O)CCc4ccccc43)CC2)cc1` gave a pKi of 4.28. The pKi values of the last two compounds are within 0.2 log units of each other.

The target of the next test is T4, Vasopressin V2 receptor (Rattus norvegicus, UniProt Q00788). As to the kind of experiment: Binding affinity was evaluated by measuring the displacement of [3H]AVP (arginine vasopressin) from specific binding sites in kidney medulla obtained from rats. The test is classed as tissue-based.
T4 sequence (Q00788 whole entry): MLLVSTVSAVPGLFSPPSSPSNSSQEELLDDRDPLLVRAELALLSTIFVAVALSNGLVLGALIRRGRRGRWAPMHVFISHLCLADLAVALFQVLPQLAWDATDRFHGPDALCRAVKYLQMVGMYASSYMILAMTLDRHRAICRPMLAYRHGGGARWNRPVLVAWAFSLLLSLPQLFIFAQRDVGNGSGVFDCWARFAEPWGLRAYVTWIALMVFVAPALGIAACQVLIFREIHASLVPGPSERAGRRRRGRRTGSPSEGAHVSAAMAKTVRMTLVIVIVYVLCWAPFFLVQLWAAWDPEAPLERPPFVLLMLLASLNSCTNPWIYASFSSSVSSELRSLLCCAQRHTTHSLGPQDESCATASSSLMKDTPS
Turning to `CC(=O)NCCCOc1ccc(C(=O)N2CCC(N3C(=O)OCc4ccccc43)CC2)cc1`, the negative logarithm of the Ki (pKi) is 4.46.

Compound `CC(=O)NCCCOc1ccc(C(=O)N2CCC(N3C(=O)NCc4ccccc43)CC2)cc1` had a pKi of less than 5.52.

`CC(=O)NCCCOc1ccc(C(=O)N2CCC(N3C(=O)CCc4ccccc43)CC2)cc1` gave a pKi of less than 4.52.

The target of another test is T5, Vasopressin V1a receptor (Rattus norvegicus, UniProt P30560). As to the kind of experiment: Binding affinity was evaluated by measuring the displacement of [3H]AVP (arginine vasopressin) from specific binding sites in rat liver.
T5 sequence (P30560 whole entry): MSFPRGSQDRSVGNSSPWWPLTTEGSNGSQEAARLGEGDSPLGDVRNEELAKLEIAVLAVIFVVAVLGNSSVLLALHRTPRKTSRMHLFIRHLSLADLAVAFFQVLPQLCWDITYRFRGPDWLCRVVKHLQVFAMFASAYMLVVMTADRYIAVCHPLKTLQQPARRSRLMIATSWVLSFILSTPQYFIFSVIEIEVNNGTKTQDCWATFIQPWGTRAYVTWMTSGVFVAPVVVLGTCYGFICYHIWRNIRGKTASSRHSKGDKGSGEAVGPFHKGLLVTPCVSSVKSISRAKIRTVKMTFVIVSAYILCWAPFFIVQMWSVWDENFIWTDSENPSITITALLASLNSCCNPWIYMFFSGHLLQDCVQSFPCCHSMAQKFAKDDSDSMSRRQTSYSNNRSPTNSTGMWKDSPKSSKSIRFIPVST
In turn, `CC(=O)N1CCCC(COc2ccc(C(=O)N3CCC(N4C(=O)OCc5ccccc54)CC3)cc2)C1` (stereo not given) gave a pKi of 7.62.

Compound `COc1cc(OC2CCN(C(C)=O)CC2)ccc1C(=O)N1CCC(N2C(=O)OCc3ccccc32)CC1` showed a pKi of 8.43.

The compound `CC(=O)N1CCCCC1CCOc1ccc(C(=O)N2CCC(N3C(=O)OCc4ccccc43)CC2)cc1` (stereo not given) showed a negative-log Ki (pKi) of 7.82.

`CC(=O)N1CCC(Oc2ccc(C(=O)N3CCC(N4C(=O)OCc5ccccc54)CC3)cc2)CC1` showed a pKi of 8.25.

In the next test the target is T5, Vasopressin V1a receptor. As to the kind of experiment: Binding affinity was evaluated by measuring the displacement of [3H]AVP (arginine vasopressin) from specific binding sites in rat liver.
As to `CC(=O)NCCCOc1ccc(C(=O)N2CCC(N3C(=O)OCc4ccccc43)CC2)cc1`, the pKi was 7.51.

`CC(=O)NCCCOc1ccc(C(=O)N2CCC(N3C(=O)NCc4ccccc43)CC2)cc1` gave a negative logarithm of the Ki (pKi) of less than 6.00.

As to `CC(=O)NCCCOc1ccc(C(=O)N2CCC(N3C(=O)CCc4ccccc43)CC2)cc1`, the negative logarithm of the Ki (pKi) was 7.49.

Another test addresses T6, Vasopressin V2 receptor (Homo sapiens, UniProt P30518). As to the kind of experiment: Binding affinity was evaluated by measuring the displacement of [3H]-AVP (arginine vasopressin) from specific binding sites in kidney medulla obtained from early postmortem human donors. The test is classed as tissue-based.
`COc1cc(OC2CCN(C(C)=O)CC2)ccc1C(=O)N1CCC(N2C(=O)OCc3ccccc32)CC1` showed a pKi of 4.43.

The target of a further test is T4, Vasopressin V2 receptor. In words: Binding affinity was evaluated by measuring the displacement of [3H]-AVP (arginine vasopressin) from specific binding sites in kidney medulla obtained from rats. Format: tissue-based.
Regarding `CC(=O)N1CCCC(COc2ccc(C(=O)N3CCC(N4C(=O)OCc5ccccc54)CC3)cc2)C1` (stereo not given), the negative-log Ki (pKi) is 4.96.

In turn, `COc1cc(OC2CCN(C(C)=O)CC2)ccc1C(=O)N1CCC(N2C(=O)OCc3ccccc32)CC1` showed a pKi of less than 4.52.

Turning to `CC(=O)N1CCCCC1CCOc1ccc(C(=O)N2CCC(N3C(=O)OCc4ccccc43)CC2)cc1` (stereo not given), the pKi was 4.96.

For the compound `CC(=O)N1CCC(Oc2ccc(C(=O)N3CCC(N4C(=O)OCc5ccccc54)CC3)cc2)CC1`, the negative-log Ki (pKi) is 4.46.

The next test concerns the target T6, Vasopressin V2 receptor. In words: Binding affinity was evaluated by measuring the displacement of [3H]AVP (arginine vasopressin) from specific binding sites in kidney medulla obtained from early postmortem human donors. The test is classed as tissue-based.
On to `CC(=O)NCCCOc1ccc(C(=O)N2CCC(N3C(=O)CCc4ccccc43)CC2)cc1`, for which the negative logarithm of the Ki (pKi) is less than 4.09.
